Measured values reported in publication PMC7086363, “All-stage precisional glioma targeted therapy enabled by a well-designed D-peptide” (Theranostics, 2020).
Where a SMILES comes first, the peptide text is derived from it. Where no end group is shown, it is not given here. [ ]: non-standard residue; d: D form. Ahx = NCCCCCC(=O)O

Assays:
[1] = test system: U87 cells; assay: Cellular internalization of fluorescein labelled peptides in U87 cells (flow cytometry); type: cell-based; conditions: 4 hours, Figure S1
Procedure: (§1) The targeting ability of ^DWVAP was evaluated in primary rat brain capillary endothelial cells (BCECs), HUVECs and U87 cells. […] OPC cells were previously proven as a cell line of glioma cell-of-origin with under-appreciated proliferative and plastic potentials. OPC cells were used here to evaluate the GSCs targeting effect of the developed peptides. […] In vivo, near-infrared dye Cy7 was conjugated with peptides and the conjugates were intravenously injected via the tail vein to test the targeting effect of ^DWVAP.
(§2) Brain capillary endothelial cells (BCEC), U87 cells and HUVEC cells were used to investigate the peptides targeting ability since they were main component of BBB, tumor and tumor vessels respectively. OPC cells were used to evaluate the glioma stem cell targeting ability in vitro [38]. Cellular uptake behavior was observed by the confocal microscope and the fluorescent intensity was captured by flow cytometry 4 hours after pre-incubation with different fluorescein labelled peptides.

[2] = test system: OPC cells; assay: Cellular internalization of fluorescein labelled peptides in OPC cells (GSC targeting); type: cell-based; conditions: confocal microscopy, Figure 2E
Procedure: as §1, §2

[3] = test system: HUVECs; assay: Cellular internalization of fluorescein labelled peptides in HUVECs (flow cytometry); type: cell-based, human; conditions: 4 hours, Figure S1
Procedure: as §1, §2

[4] = test system: NF-κB p65 nuclear translocation in U87 cells; assay: NF-κB activation and nuclear translocation assay (immunofluorescence); type: cell-based; conditions: 24 h treatment, Figure 7D-F
Excerpt: NF-κB plays a pivotal role in tumorigenesis through multiple signaling pathways. Aberrant activation of NF-κB has been observed in various types of cancer. Constitutive activation of NF-κB often causes bad response or resistance to chemotherapeutics, tumor recurrence, and poor outcome of treatment. Conversely, inhibition of NF-κB could sensitize the glioma cells to chemotherapy. The combination of PTL with PTX and TMZ in the present study enhanced anti-glioma efficacy in experimental animals. Since PTL is a potent inhibitor of NF-κB, the inhibitory activities of different PTL formulations on NF-κB pathway were examined. Immunofluorescence was used to detect NF-κB activation and nuclear translocation. After treatment with different formulations for 24 h, cells were processed for confocal fluorescence microscopic imaging. […] In addition, we also analyzed the p65 protein level in the nucleus of U87 cells by western blotting (Figure S7) and the results were consistent with immunofluorescence.
NF-κB activation and nuclear translocation assay was performed according to the reagent manufacturer's instructions (Beyotime Biotech, China). Briefly, cells were seeded in four-well disk and then treated with different drug loaded micelles or free drug alone or in combinations for 24 h. […] The protein concentrations were quantified using BCA Protein Assay Kit (Thermo Fisher Scientific). […]

[5] = test system: intracranial U87 glioma; assay: Kaplan-Meier survival of intracranial glioma bearing nude mice; type: in vivo; conditions: n = 8
Procedure: The intracranial glioma bearing mice were used to evaluate the anti-glioma efficacy of various therapeutic regimen.
Concurrent combination chemotherapy has been emerging as a promising approach to improve the efficacy of cancer therapy [29]-[31]. Thus, ^DWVAP Micelle/PTL was used in combination with TMZ and ^DWVAP Micelle/PTX respectively in the present study. For TMZ dosage regimen, mice were randomly divided into four groups (n = 8) and treated with 100 μL of saline, ^DWVAP Micelle/PTL (5 mg/kg), TMZ (10 mg/kg) and ^DWVAP Micelle/PTL plus TMZ (5 mg/kg and 10 mg/kg, respectively) via oral gavage or tail vein. […] Compared with TMZ, the combinational therapy prolonged the median survival time by 2.10 times (Figure 6A). […] The slices were also stained with anti-CD133 antibody to quantify glioma stem cells. […]
Figure 6 Kaplan-Meier survival curves of intracranial glioblastoma-implanted nude mice treated with different regimens. […] Quantification of angiogenesis inhibition in tumors with different formulations in comparison to saline group (D). […] Quantification of TUNEL positive cells in tumors with different formulations in comparison to saline group (F). […] Quantification of tumor stem cell inhibition in tumors with different formulations in comparison to saline group (H). […]

[6] = molecular target: T1, Recombinant human GRP78 protein (human, UniProt P11021 19-654); assay: SPR; Biacore T200; recombinant human GRP78 amine-coupled to a CM5 sensor chip; peptides in 2-fold serial dilution injected at 30 µL/min; buffer HBS-N or HBS-EP (methods); conditions: both partners purified
T1 construct: GRP78, human, recombinant; No catalogue number, tag or limits printed; source: bought: Abcam
T1 sequence (P11021 19-654): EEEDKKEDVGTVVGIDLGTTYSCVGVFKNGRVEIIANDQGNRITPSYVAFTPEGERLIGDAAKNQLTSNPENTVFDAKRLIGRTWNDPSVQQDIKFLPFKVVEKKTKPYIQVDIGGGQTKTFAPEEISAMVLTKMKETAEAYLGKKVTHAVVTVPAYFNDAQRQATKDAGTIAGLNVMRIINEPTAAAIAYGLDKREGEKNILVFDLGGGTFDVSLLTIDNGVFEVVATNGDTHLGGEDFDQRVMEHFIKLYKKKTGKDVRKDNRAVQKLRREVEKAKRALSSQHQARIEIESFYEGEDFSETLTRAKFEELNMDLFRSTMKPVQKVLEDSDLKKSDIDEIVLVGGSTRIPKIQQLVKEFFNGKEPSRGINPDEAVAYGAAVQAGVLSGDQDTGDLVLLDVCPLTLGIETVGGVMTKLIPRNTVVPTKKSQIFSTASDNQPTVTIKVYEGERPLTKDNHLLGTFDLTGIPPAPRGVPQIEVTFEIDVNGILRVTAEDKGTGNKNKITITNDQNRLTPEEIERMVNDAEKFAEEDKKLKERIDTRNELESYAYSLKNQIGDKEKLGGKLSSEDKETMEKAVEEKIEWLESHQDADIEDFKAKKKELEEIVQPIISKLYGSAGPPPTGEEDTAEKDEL

## CC(C)[C@@H](NC(=O)[C@@H](CCCNC(=N)N)NC(=O)[C@H](NC(=O)[C@@H](CC(N)=O)NC(=O)[C@H](N)CO)[C@H](C)O)C(=O)N[C@H](C)C(=O)N1CCC[C@@H]1C(=O)N[C@H](CS)C(=O)O [^DVAP] (HELM PEPTIDE1{[dS].[dN].[dT].[dR].[dV].[dA].[dP].[dC]}$$$$V2.0; N-terminus and C-terminus assumed)
[1]
  fluorescence-positive U87 cells: More than 90%
[2]
  uptake by OPC cells: effectively taken up
[3]
  fluorescence-positive HUVECs: > 80%

## C=C1C(=O)O[C@H]2[C@H]1CC/C(C)=C/CC[C@@]1(C)O[C@@H]21 [PTL, Parthenolide]
[4]
  p65 nuclear translocation: inhibition of p65
[5]; Figure S5B, 5 mg/kg PTL at 6, 8, 10, 12 and 14 days post-tumor implantation, saline 29.5 days
  median survival: 32 days

## CC(=O)O[C@H]1C(=O)[C@@]2(C)[C@H]([C@H](OC(=O)c3ccccc3)[C@]3(O)C[C@H](OC(=O)[C@H](O)[C@@H](NC(=O)c4ccccc4)c4ccccc4)C(C)=C1C3(C)C)[C@]1(OC(C)=O)CO[C@@H]1C[C@@H]2O [Taxol, Paclitaxel]
[5]; Figure S5A, four injections, 6 mg/kg PTX each, at 6, 9, 12 and 15 days after implantation
  median survival time: 20 days

B1: "Y-shaped" ^DWVAP peptide (peptide)
peptide: [dS][dN][dT][dR][dV][dA][dP][dC][Ahx][dW][dS][dW]G[dP][dY][dS]
modifications: not fully specified
notes: ^DVAP stretch (all-D) with D-Cys, ligand of GRP78; ^DWSW stretch (all-D), quorum-sensing peptide; joined to the first stretch through aminocaproic acid (Ahx), which has no one-letter code; also called ^DWVAP-Cys; ^DS^DN^DT^DR^DV^DA^DP^DC-Ahx-^DW^DS^DW^DG^DP^DY^DS; source: synthetic peptide (solid phase peptide synthesis)
[6]
  Kd: 686 nM

B2: ^DVAP peptide (peptide)
peptide: [dS][dN][dT][dR][dV][dA][dP][dC]
notes: all-D peptide ligand of GRP78; also called ^DS^DN^DT^DR^DV^DA^DP; ^DS^DN^DT^DR^DV^DA^DP^DC; source: synthetic peptide, bought: Karebay Biochem
[6]
  Kd: 102 nM
